Biological target: T1, β1AR-E signalling via Gs (Meleagris gallopavo, UniProt P07700, C116L/C358A/DEL244-271/F327A/F338A/M179L/M281A/M44L/M48L/R68S)
T1 construct: expressed in transfected cells; host or cells: HEK293T
Type: cell-based, turkey
Conditions: G protein not given
Description: We next assessed G protein coupling using the TRUPATH BRET2 biosensor assay[46] (Supplementary Fig. 2c) expressed in HEK293T cells, allowing examination of signalling via the canonical coupling partner Gs. […] Therefore, the TRUPATH and ligand binding assays confirmed that reversal of the thermostabilising mutation increased receptor activity without impacting ligand affinity. Also, although less efficacious, the thermostabilised β1AR-W construct still retained functional G protein coupling.
For Gq, a constitutively active mutated version (R183Q) was used to increase the sensitivity for detection of Gq activation. After 24 h, cells were harvested and seeded onto PLL-coated white 96-well plates (Greiner Bio-One) at a density of 50,000 cells per well. […] The plate was then incubated for 10 min at room temperature in the dark.

T1 sequence (P07700 other isoform, or with tags, fused parts or gaps with the stated changes): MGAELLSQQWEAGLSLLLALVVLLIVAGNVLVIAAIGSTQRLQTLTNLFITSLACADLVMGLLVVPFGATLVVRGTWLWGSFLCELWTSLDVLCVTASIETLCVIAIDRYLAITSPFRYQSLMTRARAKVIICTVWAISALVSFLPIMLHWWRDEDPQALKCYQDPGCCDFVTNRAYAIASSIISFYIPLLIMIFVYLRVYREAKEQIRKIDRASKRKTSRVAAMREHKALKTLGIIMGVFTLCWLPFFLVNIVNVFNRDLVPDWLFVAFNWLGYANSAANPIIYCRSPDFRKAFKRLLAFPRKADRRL

Compound | potency in TRUPATH assays relative to isoprenaline
O=C(NCCNCC(O)COc1ccc(O)cc1)N1CCOCC1 (centres unmarked) [Xam., xamoterol] | decreased potency
CC(C)(C)NCC(O)c1ccc(O)c(CO)c1 (centres unmarked) [Sal., salbutamol] | decreased potency

Reference: paper PMC10864275, “Binding kinetics drive G protein subtype selectivity at the β1-adrenergic receptor” (Nature Communications, 2024)
